Source: publication PMC6158786 (ACS chemical biology, 2018)
Where a chain is given by its changes, count along the chain named.

Key:
Type in all cases: biochemical
[1] = target: T1, human BCO1 (Homo sapiens, UniProt Q9HAY6); test: HPLC product formation; settings: DMN micelles, pH 7, 30 °C, 12 min
T1 sequence (Q9HAY6 1-547): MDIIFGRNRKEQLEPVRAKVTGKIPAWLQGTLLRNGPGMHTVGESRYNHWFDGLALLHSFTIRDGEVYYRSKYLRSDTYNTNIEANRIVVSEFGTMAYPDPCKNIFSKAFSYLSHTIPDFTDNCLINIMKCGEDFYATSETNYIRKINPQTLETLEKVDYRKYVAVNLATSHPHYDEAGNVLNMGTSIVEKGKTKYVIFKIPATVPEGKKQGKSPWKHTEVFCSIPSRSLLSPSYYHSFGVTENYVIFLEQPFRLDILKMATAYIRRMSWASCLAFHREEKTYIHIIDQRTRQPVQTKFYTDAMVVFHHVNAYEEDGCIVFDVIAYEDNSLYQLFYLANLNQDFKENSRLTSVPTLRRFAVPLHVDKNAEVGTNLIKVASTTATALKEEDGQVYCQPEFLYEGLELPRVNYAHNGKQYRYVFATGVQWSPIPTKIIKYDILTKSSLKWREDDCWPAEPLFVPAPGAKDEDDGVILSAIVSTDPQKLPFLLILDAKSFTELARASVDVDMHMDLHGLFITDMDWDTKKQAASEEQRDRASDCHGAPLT

[2] = target: T2, human BCO1 (Homo sapiens, UniProt Q9HAY6, W270F); test: HPLC product formation with E. coli protein extract; settings: DMN micelles, 30 °C; product all-trans-3-hydroxy-retinal
T2 sequence (Q9HAY6 1-547 W270F): T1 sequence (Q9HAY6 1-547) with W270F

[3] = target: T3, human BCO1 (Homo sapiens, UniProt Q9HAY6, L168G/W270F); test: as above; settings: DMN micelles, 30 °C; product all-trans-3-hydroxy-retinal
T3 sequence (Q9HAY6 1-547 L168G/W270F): T1 sequence (Q9HAY6 1-547) with L168G, W270F

[4] = target: T1, human BCO1; test: inhibition of BC cleavage by E. coli crude extract, HPLC; settings: 20 μM BC, 10 μM fenretinide, DMN micelles

CC1=C(/C=C/C(C)=C/C=C/C(C)=C/C=C/C=C(C)/C=C/C=C(C)/C=C/C2=C(C)CCCC2(C)C)C(C)(C)CCC1 [BC, β,β-carotene]
HPLC product formation ([1]; product all-trans-retinal): BCO1 catalyzed the production of all-trans-retinal from BC

CC1=C(/C=C/C(C)=C/C=C/C(C)=C/C=C/C=C(C)/C=C/C=C(C)/C=C/C2=C(C)C[C@@H](O)CC2(C)C)C(C)(C)C[C@H](O)C1 [ZEA, zeaxanthin]
HPLC product formation with E. coli protein extract [2]: mutant BCO1 variants readily converted zeaxanthin to all-trans-3-hydroxy-retinal in repeated assays
HPLC product formation with E. coli protein extract [3]: mutant BCO1 variants readily converted zeaxanthin to all-trans-3-hydroxy-retinal in repeated assays

CC1=C(/C=C/C(C)=C/C=C/C(C)=C/C=C/C=C(C)/C=C/C=C(C)/C=C/C2=C(C)C[C@@H](O)CC2(C)C)C(C)(C)CCC1 [CX, 3R-β,β-Caroten-3-ol]
HPLC product formation ([1]; products all-trans-retinal and 3-hydroxy-retinal): all-trans-retinal and all-trans-3-hydroxy-retinal resulting from CX cleavage displayed distinct retention times

CC1=C(/C=C/C(C)=C/C=C/C(C)=C/C(=O)Nc2ccc(O)cc2)C(C)(C)CCC1 [fenretinide]
inhibition at 10 μM [4]: fenretinide, a known BCO1 inhibitor, efficiently inhibited the enzymatic activity of BCO1
